Test results published in patent publication US7230094B2, “Neutral sphingomyelinase antisense ribozyme and uses thereof” (priority 2001, dated 2007).

Tests used:
Type in all cases: cell-based, human
[1] = tested on: ceramide production by N-SMase; experiment: Ceramide level, modified diacylglycerol kinase assay; settings: sham-transfected cells stimulated with TNF-α and Fas-L
MG-63 cells [2] = experiment: Apoptosis by DAPI staining and counting of apoptotic cells; settings: for Increase in apoptosis assessed by DAPI staining: sham-transfected cells; for Increase in apoptosis compared to untreated cells: N-SMase-deficient (ribozyme) cells treated with C2 ceramide
Protocol: FIG. 6 depicts a quantitative analysis of the effects of TNF-α, C2-Ceramide and Fas-ligand on apoptosis in mutant (CC) and WT (MG-63) cells, as well as wild type/mock transfected cells. Cells were grown on glass cover slips and incubated for 24 hours with TNF-α (20 ng/ml), cell-permeable ceramide (C2-Ceramide) (10 ng/ml) or Fas-L (1 ng/ml). Cells were fixed and stained with DAPI and photographed at 50× magnification. Apoptotic cells were counted using a hemocytometer. The basal levels of apoptotic cells were: MG-63 (3%); L-3 (3%); and CC (2.8%). Errors bars indicate ±S.D. (N=2).
WT (MG-63), LacZ (L-3) and mutant (CC) cells were grown on glass cover slips and incubated for 24 hr with TNF-α (20 ng/ml), cell-permeable ceramide (C2-ceramide) (10 ng/ml) or Fas-L (1 ng/ml). Cells were fixed and stained with DAPI stain and photographed (50×). Apoptotic cells were counted using a hemocytometer and compared to total cell counts per field. Basal levels of apoptosis were 3% untransfected, 3% control transfection, and 2.8% ribozyme transfection.

[3] = tested on: caspase-3 and cytochrome-C release; experiment: Caspase-3 and cytochrome-C release by western analysis and densitometry; settings: control (sham-transfected) cells
Protocol: In order to determine a dose-response relationship between the concentration of TNF-α or FasL and apoptosis, western analysis was used to quantitate release of both caspase-3 (FIG. 9) and cytochrome-C (FIG. 10).
Immunoblots for the measurement of cytochrome-C and caspase-3 were carried out after incubation of cells with TNF-α (10 ng/ml) or FasL (1 ng/ml) for 48 hours. Cells were extracted with a buffer (20 mM Hepes pH 7.5, 10 mM KCl, 1.5 mM MgCl2, 5 mM EDTA, 5 mM DTT, 2 mM phenylmethylsulfonylfluoride, 1% NonidetP40, 0.5% sodium deoxycholate, 0.1% SDS, 2 μg/ml leupeptin, 2 μg/ml aprotinin, 0.5 μg/ml benzamindine, and 250 mM sucrose) on ice for 30 minutes. After centrifugation for 10 minutes at 10,000×g, the supernatant was used for western analysis with an antibody for cytochrome-C (Pharmingen, San Diego, Calif.). For assessment of caspase-3, samples were similarly processed in addition to passage through a 21-g needle prior to centrifugation. The western analysis was performed with a rabbit polyclonal IgG antibody to caspase-3 (Santa Cruz, Calif.) raises against an epitope corresponding to amino acids 1–277, representing the full-length precursor form of CPP-32 (caspase-3). For both caspase-3 and cytochrome-C, bands were quantified with densitometric analysis.

MG-63 cells [4] = experiment: Cell viability by trypan blue staining; settings: control cells, TNF-α in various concentrations, 24 hours
Protocol: FIG. 8 depicts the effect of TNF-α on viability of wild type, ribozyme transfected and wild type/mock transfected cells. Cells ([…]) were seeded in 96 well sterile plastic trays. Upon confluence medium was replaced with serum free minimum essential medium and TNF-α (20 ng/ml). After incubation for 24 h at 37° C., viability of cells were determined by Trypan blue staining. The results represent ±S.D. of three experiments.
The population of viable cells was determined using trypan blue staining. Cells (10^4) were seeded in 96 well plates. Twenty-four hours later, the media was replaced with serum-free MEM, and TNF-α in various concentrations was added. After incubation for 24 hours at 37° C., the cells were trypsinized, and viable cells were counted after staining with trypan blue. Values were compared to the original cell count (10^4) and expressed as a percentage.

N-SMase = experiment: TNF-α and Fas ligand induced N-SMase activity in WT and mutant cells; settings: for N-SMase activity under cytokine stimulation: sham-transfected cells stimulated with TNF-α and Fas-L, basal 2.7
Protocol: FIGS. 4A–4B depict the effects of incubation with TNF-α (FIG. 4A) and Fas ligand (FIG. 4B) over time on the activity of N-SMase in mutant and WT cells. Confluent cultures of WT (MG-63) and mutant (CC) cells were incubated with serum free medium with or without TNF-α ([…]) or Fas ligand (1 ng/ml). At the indicated intervals, cells were harvested, centrifuged, and lysed in buffer containing 0.1% Triton™ X-100, 25 mM Tris (pH 7.4), 5 mM EDTA, 1 mM phenylmethylsulfonyl fluoride (PMSF), and 2 μg each of chymostatin, leupeptin, antipain, and pepstatin A. 100 μl of a reaction mixture containing 50 mM Tris (pH 7.4), 5 mM MgCl2, 0.05% Triton™ X-100, 5 mM dithiothreitol (DTT) and 10 nmol [^14C] sphingomyelin (100,000 cpm) was added to 5–10 μl of cell lysate (100 μg protein). The basal activity of N-SMase was 2.7±0.1 nmol/mg protein/hr in MG63 cells and 0.67±0.1 nmol/mg protein/hr in CC cells. These levels were defined as 100% activity. Error bars indicate ±S.D. (N=3).
Tumor necrosis factor alpha (TNF-α) is known to induce programmed cell death through stimulation of sphingomyelinase activity and generation of ceramide. This example describes the ability of the ribozyme directed against N-SMase to inhibit this pathway. The effects of incubation with TNF-α and Fas ligand over time on the activity of N-SMase in mutant and WT cells are shown in FIGS. 4A and 4B, respectively. Confluent cultures of WT (MG-63) and mutant (CC) cells were incubated with serum free medium with or without TNF-α ([…]) or Fas ligand (1 ng/ml), and the activity of N-SMase was determined by measuring the cleavage of [^14C]sphingomyelin. At 0, 10, 20, 30, 40, 50, and 60 minutes, cells were harvested, centrifuged, and lysed in buffer containing 0.1% Triton™ X-100, 25 mM Tris (pH 7.4), 5 mM EDTA, 1 mM phenylmethylsulfonyl fluoride (PMSF), and 2 μg each of chymostatin, leupeptin, antipain, and pepstatin A. 100 μl of a reaction mixture containing 50 mM Tris (pH 7.4), 5 mM MgCl2, 0.05% Triton™ X-100, 5 mM dithiothreitol (DTT) and 10 nmol [^14C]sphingomyelin (100,000 cpm) was added to 5–10 μl of cell lysate (100 μg protein). The basal activity of N-SMase was 2.7±0.1 nmol/mg protein/hr in MG63 cells and 0.67±0.1 nmol/mg protein/hr in CC cells. These levels were defined as 100% activity.

Compound | Increase in ceramide production [1] | DAPI staining (MG-63 cells [2]; control-transfected cells, TNF-α 20 ng/ml for 24 hours, compared to untransfected cells) | Increase in apoptosis assessed by DAPI staining (MG-63 cells [2]) | Dose-response of caspase-3 and cytochrome-C release [3] | Decline in population of viable cells (MG-63 cells [4]) | Peak N-SMase activity relative to unstimulated cells (N-SMase; control transfected clones, 10 minutes after addition of TNF-α) | N-SMase activity under cytokine stimulation (N-SMase) | Increase in apoptosis compared to untreated cells (MG-63 cells [2]) | Increase in apoptosis compared to untreated cells (MG-63 cells [2]; listed as C2-ceramide)
Tumor necrosis factor alpha [TNF-α, reference compound] | about 2 fold | 490% | about 4 fold | linear dose-response relationship | prompt decline | 140% | 4.0 nmol/mg protein/hr | – | –
CCCCCCCCCCCCC/C=C/[C@@H](O)[C@H](CO)NC(C)=O [C2 ceramide] | – | – | – | – | – | – | – | about 2.5 fold | greater than two-fold increase
Fas ligand: ligand for Fas/Apo-1 (CD95), used as apoptosis agonist [reference compound] | about 2 fold | – | about 4 fold | linear dose-response relationship | – | – | 4.0 nmol/mg protein/hr | – | –
